The source of these data is US20260138978A1, “POSITIVE ALLOSTERIC MODULATORS OF THE MUSCARINIC ACETYLCHOLINE RECEPTOR M1” (Vanderbilt University, priority 2022, published 2026).

Assay [1] deals with T1, human mAChRM1 (Homo sapiens, UniProt P11229).
T1 construct: host or cells: CHO-K1
T1 sequence (P11229 1-460): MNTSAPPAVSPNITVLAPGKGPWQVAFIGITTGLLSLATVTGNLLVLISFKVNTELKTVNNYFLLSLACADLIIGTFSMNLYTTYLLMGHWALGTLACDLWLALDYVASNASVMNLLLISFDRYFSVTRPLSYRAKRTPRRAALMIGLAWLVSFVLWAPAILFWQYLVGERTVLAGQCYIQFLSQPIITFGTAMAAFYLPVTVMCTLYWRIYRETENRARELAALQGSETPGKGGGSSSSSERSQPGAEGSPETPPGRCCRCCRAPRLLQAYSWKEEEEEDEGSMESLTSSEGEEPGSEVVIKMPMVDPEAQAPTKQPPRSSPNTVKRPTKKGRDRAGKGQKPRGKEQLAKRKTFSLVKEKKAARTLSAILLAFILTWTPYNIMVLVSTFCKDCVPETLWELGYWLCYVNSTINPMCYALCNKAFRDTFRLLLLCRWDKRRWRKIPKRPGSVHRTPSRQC
Briefly: mAChR M1 cell-based functional assay (calcium mobilization), positive allosteric modulator activity: increase in the EC20 acetylcholine response. The conditions noted are these: for Emax: PAM mode; for EC50: increase in the EC20 acetylcholine response, read-out: PAM Activity Human M1 EC50. In a few lines: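 CHO-K1 cells stably expressing human M1, loaded with Fluo-4 AM; calcium flux recorded on FDSS at 1 Hz over 300 s following compound addition. PAM activity is the concentration-dependent increase of an EC20 acetylcholine response; EC50 and Emax from four-parameter logistic fits of 11-point, 1:3 concentration series.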
A general note: Calcium assays in cells follow changes in intracellular calcium, usually with a dye or a luminescent sensor.

Assay [2] concerns the target T1, human mAChRM1. Description: mAChR M1 cell-based functional assay (calcium mobilization), agonist activity upon compound addition, Emax relative to acetylcholine maximum. Conditions: for EC50 / Agonist Activity Human M1 EC50: calcium mobilization upon compound addition; for Emax: relative to the maximum for acetylcholine; call rule not given here. In a few lines: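 CHO-K1 cells stably expressing human M1 were loaded with Fluo-4 AM for 50 min at 37 °C. Compound was added 4 s into a 300 s FDSS read at 1 Hz, over 11-point 1:3 dilution curves. Agonism was taken as a concentration-dependent rise in calcium fluorescence ratio, with Emax expressed relative to the acetylcholine maximum from four-parameter logistic fits.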

The structures appear in SMILES notation.

Usually Emax stands for the size of the effect at its maximum, as opposed to the concentration needed. A word on the EC50: it is the concentration needed to bring the measured effect to its halfway point. On to `Cn1cc2c(-c3ccc(CN4Cc5cccnc5C4=O)c(F)c3)ccc(C(C)(C)O)c2n1` [Compound 130, 6-(2-fluoro-4-(7-(2-hydroxypropan-2-yl)-2-methyl-2H-indazol-4-yl)benzyl)-5,6-dihydro-7H-pyrrolo[3,4-b]pyridin-7-one], for which the results for the Emax on human mAChRM1 [1] and at human mAChRM1 [2] were 88% and 12%, respectively. The EC50 on human mAChRM1 [1] worked out at 251 nM; on human mAChRM1 [2] it was 7490 nM.
As to `Cn1cc2c(-c3ccc(CN4Cc5cccnc5C4=O)cc3)ccc(C(C)(C)O)c2n1` [Compound 131, 6-(4-(7-(2-hydroxypropan-2-yl)-2-methyl-2H-indazol-4-yl)benzyl)-5,6-dihydro-7H-pyrrolo[3,4-b]pyridin-7-one], at human mAChRM1 [1], the Emax came out at 92% and the EC50 stood at 825 nM. Moreover, the “Agonist Activity Human M1 EC50” value at human mAChRM1 [2] is “inactive”.
In the case of `Cc1cc(-c2ccc(C(C)(C)O)c3nn(C)cc23)ccc1CN1Cc2cccnc2C1=O` [Compound 132, 6-(4-(7-(2-hydroxypropan-2-yl)-2-methyl-2H-indazol-4-yl)-2-methylbenzyl)-5,6-dihydro-7H-pyrrolo[3,4-b]pyridin-7-one], the values for the maximal response (Emax) at human mAChRM1 [1] and on human mAChRM1 [2] were 87% and 14%, respectively. Further, the figures for the EC50 at human mAChRM1 [1] and at human mAChRM1 [2] were 499 nM and no less than 10000 nM, respectively.
As for `Cn1cc2c(-c3cc(F)c(CN4Cc5cccnc5C4=O)c(C4CC4)c3)ccc(C(C)(C)O)c2n1` [Compound 133, 6-(2-cyclopropyl-6-fluoro-4-(7-(2-hydroxypropan-2-yl)-2-methyl-2H-indazol-4-yl)benzyl)-5,6-dihydro-7H-pyrrolo[3,4-b]pyridin-7-one], the Emax at human mAChRM1 [1] turned out to be 79%; on human mAChRM1 [2], 72%. Besides, the EC50 was 61 nM at human mAChRM1 [1] and 4420 nM at human mAChRM1 [2].
Taken in the same sequence, the figures for `Cn1cc2c(-c3cc(Cl)c(CN4Cc5cccnc5C4=O)c(C4CC4)c3)ccc(C(C)(C)O)c2n1` [Compound 134, 6-(2-chloro-6-cyclopropyl-4-(7-(2-hydroxypropan-2-yl)-2-methyl-2H-indazol-4-yl)benzyl)-5,6-dihydro-7H-pyrrolo[3,4-b]pyridin-7-one] were 76%, 60%, 1310 nM and 9050 nM.
Taken in the same sequence, the figures for `Cn1cc2c(-c3cc(F)c(CN4Cc5cccnc5C4=O)c(N4CCC4)c3)ccc(C(C)(C)O)c2n1` [Compound 135, 6-(2-(azetidin-1-yl)-6-fluoro-4-(7-(2-hydroxypropan-2-yl)-2-methyl-2H-indazol-4-yl)benzyl)-5,6-dihydro-7H-pyrrolo[3,4-b]pyridin-7-one] were 80%, 23%, 1030 nM and no less than 10000 nM.
The corresponding values for `Cn1cc2c(-c3cc(F)c(CN4Cc5cccnc5C4=O)c(C4CCCC4)c3)ccc(C(C)(C)O)c2n1` [Compound 136, 6-(2-cyclopentyl-6-fluoro-4-(7-(2-hydroxypropan-2-yl)-2-methyl-2H-indazol-4-yl)benzyl)-5,6-dihydro-7H-pyrrolo[3,4-b]pyridin-7-one] are 86%, 21%, 648 nM and 9680 nM.
With `CC(C)(O)c1ccc(-c2cc(F)c(CN3Cc4nccnc4C3=O)c(F)c2)cc1` [Compound 137, 6-((3,5-difluoro-4′-(2-hydroxypropan-2-yl)-[1,1′-biphenyl]-4-yl)methyl)-6,7-dihydro-5H-pyrrolo[3,4-b]pyrazin-5-one], at human mAChRM1 [1], the Emax came out at 60% and the EC50 turned out to be 5040 nM. For the same compound, at human mAChRM1 [2], the “Agonist Activity Human M1 EC50” value was “inactive”.
With `Cn1cc2c(-c3cc(F)c(CN4Cc5nccnc5C4=O)c(F)c3)ccc(C(C)(C)O)c2n1` [Compound 138, 6-(2,6-Difluoro-4-(7-(2-hydroxypropan-2-yl)-2-methyl-2H-indazol-4-yl)benzyl)-6,7-dihydro-5H-pyrrolo[3,4-b]pyrazin-5-one], at human mAChRM1 [1], the Emax is 67% and the EC50 came out at 281 nM. On human mAChRM1 [2], the EC50 was no less than 10000 nM and the Emax was determined as 17%.
Taken in the same sequence, the figures for `Cn1cc2c(-c3cc(F)c(CN4Cc5ncncc5C4=O)c(F)c3)ccc(C(C)(C)O)c2n1` [Compound 139, 6-(2,6-difluoro-4-(7-(2-hydroxypropan-2-yl)-2-methyl-2H-indazol-4-yl)benzyl)-6,7-dihydro-5H-pyrrolo[3,4-d]pyrimidin-5-one] were 87%, 80 nM, 3780 nM and 46%.
For `Cn1cc2c(-c3cc(F)c(CN4Cc5ccncc5C4=O)c(F)c3)ccc(C(C)(C)O)c2n1` [Compound 140, 2-(2,6-difluoro-4-(7-(2-hydroxypropan-2-yl)-2-methyl-2H-indazol-4-yl)benzyl)-1,2-dihydro-3H-pyrrolo[3,4-c]pyridin-3-one], the Emax at human mAChRM1 [1] was 76%; at human mAChRM1 [2], 41%. Besides, the concentration giving a half-maximal response (EC50) at human mAChRM1 [1] amounted to 84 nM; on human mAChRM1 [2], 5640 nM.
Regarding `CC(C)(O)c1ccc(-c2cc(F)c(CN3Cc4ccncc4C3=O)c(F)c2)cc1` [Compound 141, 2-((3,5-difluoro-4′-(2-hydroxypropan-2-yl)-[1,1′-biphenyl]-4-yl)methyl)-1,2-dihydro-3H-pyrrolo[3,4-c]pyridin-3-one], on human mAChRM1 [1], the Emax was found to be 79% and the EC50 stood at 1010 nM. For the same compound, the “Agonist Activity Human M1 EC50” value at human mAChRM1 [2] is “inactive”.
On to `[2H]C1([2H])c2ncccc2C(=O)N1Cc1c(F)cc(-c2ccc(C(C)(C)O)c3nn(C)cc23)cc1F` [Compound 142, 6-(2,6-Difluoro-4-(7-(2-hydroxypropan-2-yl)-2-methyl-2H-indazol-4-yl)benzyl)-6,7-dihydro-5H-pyrrolo[3,4-b]pyridin-5-one-7,7-d2], for which, at human mAChRM1 [1], the maximal response (Emax) turned out to be 87% and the EC50 is 119 nM. For the same compound, at human mAChRM1 [2], the EC50 worked out at 4020 nM and the Emax turned out to be 31%.
The corresponding values for `[2H]C1([2H])c2ncccc2C(=O)N1Cc1c(F)cc(-c2ccc(C(C)(C)O)c3nn(C([2H])([2H])[2H])cc23)cc1F` [Compound 145, 6-(2,6-difluoro-4-(7-(2-hydroxypropan-2-yl)-2-(methyl-d3)-2H-indazol-4-yl)benzyl)-6,7-dihydro-5H-pyrrolo[3,4-b]pyridin-5-one-7,7-d2] are 62%, 145 nM, 3780 nM and 12%.
The corresponding values for `[2H]C1([2H])c2ncccc2C(=O)N1Cc1cc(F)c(-c2ccc(C(C)(C)O)c3nn(C)cc23)cc1F` [Compound 148, 6-(2,5-difluoro-4-(7-(2-hydroxypropan-2-yl)-2-methyl-2H-indazol-4-yl)benzyl)-6,7-dihydro-5H-pyrrolo[3,4-b]pyridin-5-one-7,7-d2] are 89%, 206 nM, no less than 10000 nM and 27%.
Consider `[2H]C1([2H])c2ncccc2C(=O)N1Cc1ccc(-c2ccc(C(C)(C)O)c3nn(C)cc23)c(F)c1F` [Compound 149, 6-(2,3-Difluoro-4-(7-(2-hydroxypropan-2-yl)-2-methyl-2H-indazol-4-yl)benzyl)-6,7-dihydro-5H-pyrrolo[3,4-b]pyridin-5-one-7,7-d2], for which, on human mAChRM1 [1], the Emax turned out to be 88% and the EC50 was 623 nM. The “Agonist Activity Human M1 EC50” value at human mAChRM1 [2] was “inactive”.
Turning to `[2H]C1([2H])c2ncccc2C(=O)N1Cc1c(Cl)cc(-c2ccc(C(C)(C)O)c3nn(C)cc23)cc1C1CC1` [Compound 150, 6-(2-chloro-6-cyclopropyl-4-(7-(2-hydroxypropan-2-yl)-2-methyl-2H-indazol-4-yl)benzyl)-6,7-dihydro-5H-pyrrolo[3,4-b]pyridin-5-one-7,7-d2], the figures for the Emax on human mAChRM1 [1] and on human mAChRM1 [2] were 79% and 23%, respectively. Besides, the EC50 was 364 nM at human mAChRM1 [1] and 6720 nM at human mAChRM1 [2].
For the compound `[2H]C1([2H])c2ncccc2C(=O)N1Cc1c(F)cc(-c2ccc(C(C)(C)O)c3nn(C)cc23)cc1N1CCC1` [Compound 151, 6-(2-(azetidin-1-yl)-6-fluoro-4-(7-(2-hydroxypropan-2-yl)-2-methyl-2H-indazol-4-yl)benzyl)-6,7-dihydro-5H-pyrrolo[3,4-b]pyridin-5-one-7,7-d2], at human mAChRM1 [1], the Emax stood at 85% and the EC50 is 1270 nM. Further, the “Agonist Activity Human M1 EC50” value on human mAChRM1 [2] is “inactive”.
The corresponding values for `[2H]C1([2H])c2ncccc2C(=O)N1Cc1c(F)cc(-c2ccc(C(C)(C)O)c3nn(C)cc23)cc1C1CCCC1` [Compound 152, 6-(2-cyclopentyl-6-fluoro-4-(7-(2-hydroxypropan-2-yl)-2-methyl-2H-indazol-4-yl)benzyl)-6,7-dihydro-5H-pyrrolo[3,4-b]pyridin-5-one-7,7-d2] are 74%, 3360 nM and “inactive”.
